Assay results taken from patent US9822103B2, “Inhibitors of lysine methyl transferase” (priority 2013, dated 2017).

biological target: recombinant EZH2-641F complex (EZH2 Y641F/EED/SUZ12/RbAp48/AEBP2) (Homo sapiens (Human), UniProt Q15910, Y641F); assay: EZH2 Histone Methyl Transferase Assay (scintillation proximity assay); assay type: biochemical; details: 350 nM histone peptide substrate, 500 nM 3H-SAM, 3 hours room temperature
Method: EZH2 Histone Methyl Transferase Assay
The effectiveness of compounds of the present invention as inhibitors of histone methyl transferases can be readily tested by assays known to those skilled in the art. For example, in vitro histone methyl transferase assays may be conducted with a relevant purified histone methyl transferase and an appropriate synthetic substrate to determine the inhibitory activity of the compounds. Assays for inhibition of EZH2 by the instant compounds were performed in 384-well plates with reaction mixtures containing 350 nM of histone peptide substrate (ATKAAR-K(Me2)-SAPATGGVKKPHRYRPG-GK(Biotin), 500 nM S-[methyl-^3H]adenosyl-L-methionine (55-85 Ci/mmol), 50 mM Tris-HCl (pH 9.0), 50 mM NaCl, 1 mM dithiothreitol, Tween-20 at 0.01% and fatty-acid free bovine serum albumin at 0.01%, and recombinant EZH2-641F complex (EZH2 Y641F/EED/SUZ12/RbAp48/AEBP2) at 5 nM (>98% purity, BPS Bioscience) or 15 nM (50% purity, in-house). Reaction mixtures were incubated at room temperature for 3 hours, and the reactions were terminated by 0.005% poly-L-lysine solution in 20 mM Tris-HCl (pH 7.5) and 150 mM NaCl. Reaction products were captured by binding to strepavidin-conjugated imaging beads. Incorporation of radioactive methyl group into the histone peptide substrate was determined in Leadseeker (GE Healthcare) by means of scintillation proximity assay. Dose response curves were generated to determine the concentration required to inhibit 50% of methyl transferase activity (EC50). Compounds were dissolved at 10 mM in dimethylsulfoxide (DMSO) and evaluated at eleven concentrations. EC50 values were derived by non-linear regression analysis.

Chain of recombinant EZH2-641F complex (EZH2 Y641F/EED/SUZ12/RbAp48/AEBP2) (Q15910 whole entry Y641F): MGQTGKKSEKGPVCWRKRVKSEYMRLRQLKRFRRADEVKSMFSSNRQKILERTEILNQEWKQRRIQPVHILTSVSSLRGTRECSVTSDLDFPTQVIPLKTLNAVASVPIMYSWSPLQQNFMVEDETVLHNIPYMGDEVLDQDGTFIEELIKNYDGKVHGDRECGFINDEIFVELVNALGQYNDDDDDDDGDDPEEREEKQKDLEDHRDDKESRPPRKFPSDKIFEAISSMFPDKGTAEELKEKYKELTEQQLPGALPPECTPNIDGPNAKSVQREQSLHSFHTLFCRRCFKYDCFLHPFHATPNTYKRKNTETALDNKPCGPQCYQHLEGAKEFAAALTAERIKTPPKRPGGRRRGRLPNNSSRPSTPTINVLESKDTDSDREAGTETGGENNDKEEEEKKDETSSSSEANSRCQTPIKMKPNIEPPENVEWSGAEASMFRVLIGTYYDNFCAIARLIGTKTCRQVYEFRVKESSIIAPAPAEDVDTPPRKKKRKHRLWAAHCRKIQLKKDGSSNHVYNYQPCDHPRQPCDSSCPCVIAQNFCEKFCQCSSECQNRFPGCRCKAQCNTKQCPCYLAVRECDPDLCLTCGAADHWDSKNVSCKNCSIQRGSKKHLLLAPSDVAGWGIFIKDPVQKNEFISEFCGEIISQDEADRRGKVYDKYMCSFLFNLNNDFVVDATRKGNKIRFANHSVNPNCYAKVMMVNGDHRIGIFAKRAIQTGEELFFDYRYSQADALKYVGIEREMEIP
Chain of recombinant EZH2-641F complex (EZH2 Y641F/EED/SUZ12/RbAp48/AEBP2) (O75530 whole entry partner): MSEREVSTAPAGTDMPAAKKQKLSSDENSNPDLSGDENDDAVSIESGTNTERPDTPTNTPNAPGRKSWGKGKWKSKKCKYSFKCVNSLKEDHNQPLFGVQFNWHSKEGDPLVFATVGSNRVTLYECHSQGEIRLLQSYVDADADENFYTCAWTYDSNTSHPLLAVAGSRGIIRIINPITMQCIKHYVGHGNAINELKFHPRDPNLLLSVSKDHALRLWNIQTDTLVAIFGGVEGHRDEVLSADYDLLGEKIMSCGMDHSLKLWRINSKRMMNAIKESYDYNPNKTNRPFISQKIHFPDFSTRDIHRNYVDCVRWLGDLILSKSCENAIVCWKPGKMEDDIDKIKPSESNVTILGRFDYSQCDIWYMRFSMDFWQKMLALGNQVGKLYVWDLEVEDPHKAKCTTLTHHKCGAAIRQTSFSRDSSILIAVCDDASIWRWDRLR
Chain of recombinant EZH2-641F complex (EZH2 Y641F/EED/SUZ12/RbAp48/AEBP2) (Q15022 whole entry partner): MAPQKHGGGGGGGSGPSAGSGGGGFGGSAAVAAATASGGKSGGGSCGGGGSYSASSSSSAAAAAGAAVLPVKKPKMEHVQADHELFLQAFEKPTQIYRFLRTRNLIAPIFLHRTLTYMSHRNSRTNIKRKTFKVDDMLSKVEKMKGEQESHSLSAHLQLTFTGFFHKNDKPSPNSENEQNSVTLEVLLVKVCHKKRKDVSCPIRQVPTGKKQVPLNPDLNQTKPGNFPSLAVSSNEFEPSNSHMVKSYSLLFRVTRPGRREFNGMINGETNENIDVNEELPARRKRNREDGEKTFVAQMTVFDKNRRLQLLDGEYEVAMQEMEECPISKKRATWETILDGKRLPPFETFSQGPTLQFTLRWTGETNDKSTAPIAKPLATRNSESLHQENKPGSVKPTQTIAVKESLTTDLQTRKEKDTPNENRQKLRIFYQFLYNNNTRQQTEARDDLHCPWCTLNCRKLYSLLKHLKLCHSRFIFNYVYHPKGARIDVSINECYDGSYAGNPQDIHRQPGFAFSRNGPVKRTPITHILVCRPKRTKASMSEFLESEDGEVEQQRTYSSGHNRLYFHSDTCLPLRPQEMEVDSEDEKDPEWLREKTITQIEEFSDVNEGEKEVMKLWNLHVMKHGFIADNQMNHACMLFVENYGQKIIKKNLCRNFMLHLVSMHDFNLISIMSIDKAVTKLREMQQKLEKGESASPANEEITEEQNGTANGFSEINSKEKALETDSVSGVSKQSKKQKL
Chain of recombinant EZH2-641F complex (EZH2 Y641F/EED/SUZ12/RbAp48/AEBP2) (Q09028 whole entry partner): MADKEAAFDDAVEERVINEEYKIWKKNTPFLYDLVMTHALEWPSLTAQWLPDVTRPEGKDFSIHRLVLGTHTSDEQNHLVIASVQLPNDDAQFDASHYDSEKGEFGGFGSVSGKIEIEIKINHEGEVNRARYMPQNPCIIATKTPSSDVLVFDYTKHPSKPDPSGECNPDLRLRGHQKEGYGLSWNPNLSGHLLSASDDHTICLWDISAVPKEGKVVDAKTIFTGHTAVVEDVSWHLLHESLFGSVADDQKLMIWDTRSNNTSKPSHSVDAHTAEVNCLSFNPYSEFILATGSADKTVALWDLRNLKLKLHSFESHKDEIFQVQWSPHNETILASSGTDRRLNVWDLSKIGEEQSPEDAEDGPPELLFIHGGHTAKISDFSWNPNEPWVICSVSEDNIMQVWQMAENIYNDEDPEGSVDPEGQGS
Chain of recombinant EZH2-641F complex (EZH2 Y641F/EED/SUZ12/RbAp48/AEBP2) (Q6ZN18 whole entry partner): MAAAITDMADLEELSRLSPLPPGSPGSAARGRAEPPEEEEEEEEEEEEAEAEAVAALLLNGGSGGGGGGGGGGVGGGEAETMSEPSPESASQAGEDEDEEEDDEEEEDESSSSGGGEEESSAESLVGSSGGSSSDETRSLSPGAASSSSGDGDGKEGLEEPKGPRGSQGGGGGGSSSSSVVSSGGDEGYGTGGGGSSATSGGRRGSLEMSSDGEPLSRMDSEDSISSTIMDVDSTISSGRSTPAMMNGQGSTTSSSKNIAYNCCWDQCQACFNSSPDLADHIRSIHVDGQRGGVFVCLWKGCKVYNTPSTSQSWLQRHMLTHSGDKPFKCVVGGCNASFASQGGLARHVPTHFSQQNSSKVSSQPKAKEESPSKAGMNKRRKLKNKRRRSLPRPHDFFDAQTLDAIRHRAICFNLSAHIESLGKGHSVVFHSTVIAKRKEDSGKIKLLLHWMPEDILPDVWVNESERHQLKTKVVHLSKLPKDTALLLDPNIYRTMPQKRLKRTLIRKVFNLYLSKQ

| IC50 [µM] | SMILES |
| --- | --- |
| 0.5 to 1 | Cc1cc(C)c(CNC(=O)c2cc(Br)c3c(c2C)CC(C)(C)O3)c(=O)[nH]1 [Example 7, 7-Bromo-N-((4,6-dimethyl-2-oxo-1,2-dihydropyridin-3-yl)methyl)-2,2,4-trimethyl-2,3-dihydrobenzofuran-5-carboxamide] |
| < 0.5 | Cc1cc(C)c(CNC(=O)c2cc3c(c(-c4ccc(N5CCNCC5)nc4)c2)OC(C)(C)C3)c(=O)[nH]1 [Example 11, N-((4,6-Dimethyl-2-oxo-1,2-dihydropyridin-3-yl)methyl)-2,2-dimethyl-7-(6-(piperazin-1-yl)pyridin-3-yl)-2,3-dihydrobenzofuran-5-carboxamide] |
| > 1 | Cc1cc(C)c(CNC(=O)c2cc3c(c(-c4ccc(N5CCNCC5)nc4)c2)OC(C(C)C)C3)c(=O)[nH]1 (stereo not drawn) [Example 80, N-((4,6-Dimethyl-2-oxo-1,2-dihydropyridin-3-yl)methyl)-2-isopropyl-7-(6-(piperazin-1-yl)pyridin-3-yl)-2,3-dihydrobenzofuran-5-carboxamide] |
| < 0.5 | Cc1cc(C)c(CNC(=O)c2cc(-c3ccc(N4CCNCC4)nc3)c3c(c2C)CC(C)(C)O3)c(=O)[nH]1 [Example 26, N-((4,6-Dimethyl-2-oxo-1,2-dihydropyridin-3-yl)methyl)-2,2,4-trimethyl-7-(6-(piperazin-1-yl)pyridin-3-yl)-2,3-dihydrobenzofuran-5-carboxamide] |
| > 1 | COc1ccc(-c2cc(C(=O)NCc3c(C)cc(C)[nH]c3=O)cc3c2OCC3)cn1 [Example 36, N-((4,6-Dimethyl-2-oxo-1,2-dihydropyridin-3-yl)methyl)-7-(6-methoxypyridin-3-yl)-2,3-dihydrobenzofuran-5-carboxamide] |
| < 0.5 | C=CC1(C)Cc2cc(C(=O)NCc3c(C)cc(C)[nH]c3=O)cc(-c3ccc(N4CCNCC4)nc3)c2O1 (stereo not drawn) [Example 59, N-((4,6-Dimethyl-2-oxo-1,2-dihydropyridin-3-yl)methyl)-2-methyl-7-(6-(piperazin-1-yl)pyridin-3-yl)-2-vinyl-2,3-dihydrobenzofuran-5-carboxamide] |
| > 1 | Cc1cc(C)c(CNC(=O)c2cc(F)c3c(c2)CC(C)(C)O3)c(=O)[nH]1 [Example 4, N-((4,6-Dimethyl-2-oxo-1,2-dihydropyridin-3-yl)methyl)-7-fluoro-2,2-dimethyl-2,3-dihydrobenzofuran-5-carboxamide] |
| > 1 | Cc1cc(C)c(CNC(=O)c2ccc3c(c2)C=CCC(C)O3)c(=O)[nH]1 (stereo not drawn) [Example 47, N-((4,6-Dimethyl-2-oxo-1,2-dihydropyridin-3-yl)methyl)-2-methyl-2,3-dihydrobenzo[b]oxepine-7-carboxamide] |
| > 1 | C=C(C)C1(C)Cc2cc(C(=O)NCc3c(C)cc(C)[nH]c3=O)cc(Br)c2O1 (stereo not drawn) [Example 82, 7-Bromo-N-((4,6-dimethyl-2-oxo-1,2-dihydropyridin-3-yl)methyl)-2-methyl-2-(prop-1-en-2-yl)-2,3-dihydrobenzofuran-5-carboxamide] |
| > 1 | Cc1cc(C)c(CNC(=O)c2cc(Br)c3c(c2)[C@@H]2CCC[C@]2(C)O3)c(=O)[nH]1 (racemic) [Example 64, rac-(3aS,8bS)-5-Bromo-N-((4,6-dimethyl-2-oxo-1,2-dihydropyridin-3-yl)methyl)-3a-methyl-2,3,3a,8b-tetrahydro-1H-cyclopenta[b]benzofuran-7-carboxamide] |
| > 1 | C=CC1(C)Cc2cc(C(=O)NCc3c(C)cc(C)[nH]c3=O)cc(-c3ccc(OC)nc3)c2O1 (stereo not drawn) [Example 56, N-((4,6-Dimethyl-2-oxo-1,2-dihydropyridin-3-yl)methyl)-7-(6-methoxypyridin-3-yl)-2-methyl-2-vinyl-2,3-dihydrobenzofuran-5-carboxamide] |
| > 1 | C=CC1(C)Cc2cc(C(=O)NCc3c(C)cc(C)[nH]c3=O)cc(-c3cnc(N4CCN(C(=O)OC(C)(C)C)CC4)nc3)c2O1 (stereo not drawn) [Example 60, t-Butyl 4-(5-(5-(((4,6-dimethyl-2-oxo-1,2-dihydropyridin-3-yl)methyl)carbamoyl)-2-methyl-2-vinyl-2,3-dihydrobenzofuran-7-yl)pyrimidin-2-yl)piperazine-1-carboxylate] |
| > 1 | Cc1cc(C)c(CNC(=O)c2ccc3c(c2C)CC(C)(C)O3)c(=O)[nH]1 [Example 8, N-((4,6-Dimethyl-2-oxo-1,2-dihydropyridin-3-yl)methyl)-2,2,4-trimethyl-2,3-dihydrobenzofuran-5-carboxamide] |
| > 1 | Cc1cc(C)c(CNC(=O)c2cc(-c3ccc(N4CCOCC4)nc3)c3c(c2)C(C)CO3)c(=O)[nH]1 (stereo not drawn) [Example 27, N-((4,6-Dimethyl-2-oxo-1,2-dihydropyridin-3-yl)methyl)-3-methyl-7-(6-morpholinopyridin-3-yl)-2,3-dihydrobenzofuran-5-carboxamide] |
| < 0.5 | Cc1cc(C)c(CNC(=O)c2cc3c(c(-c4ccc(N5CCOCC5)nc4)c2)OC(C)(C)C3)c(=O)[nH]1 [Example 12, N-((4,6-Dimethyl-2-oxo-1,2-dihydropyridin-3-yl)methyl)-2,2-dimethyl-7-(6-morpholinopyridin-3-yl)-2,3-dihydrobenzofuran-5-carboxamide] |
| > 1 | Cc1cc(C)c(CNC(=O)c2cc3c(c(-c4ccc(CN5CCCCC5)cc4)c2)OC(C)(C)C3)c(=O)[nH]1 [Example 19, N-((4,6-Dimethyl-2-oxo-1,2-dihydropyridin-3-yl)methyl)-2,2-dimethyl-7-(4-(piperidin-1-ylmethyl)phenyl)-2,3-dihydrobenzofuran-5-carboxamide] |
| > 1 | Cc1cc(C)c(CNC(=O)c2cc3c(c(-c4ccc(CN5CCOCC5)cc4)c2)OC(C)CCC3)c(=O)[nH]1 (stereo not drawn) [Example 50, N-((4,6-Dimethyl-2-oxo-1,2-dihydropyridin-3-yl)methyl)-2-methyl-9-(4-(morpholinomethyl)phenyl)-2,3,4,5-tetrahydrobenzo[b]oxepine-7-carboxamide] |
| > 1 | COc1ccc(-c2cc(C(=O)NCc3c(C)cc(C)[nH]c3=O)cc3c2OC(C)C3)cn1 (stereo not drawn) [Example 32, N-((4,6-Dimethyl-2-oxo-1,2-dihydropyridin-3-yl)methyl)-7-(6-methoxypyridin-3-yl)-2-methyl-2,3-dihydrobenzofuran-5-carboxamide] |
| < 0.5 | CCC1(C)Cc2cc(C(=O)NCc3c(C)cc(C)[nH]c3=O)cc(-c3ccc(N4CCNCC4)nc3)c2O1 (stereo not drawn) [Example 62, N-((4,6-Dimethyl-2-oxo-1,2-dihydropyridin-3-yl)methyl)-2-ethyl-2-methyl-7-(6-(piperazin-1-yl)pyridin-3-yl)-2,3-dihydrobenzofuran-5-carboxamide] |

| SMILES | IC50 [µM] |
| --- | --- |
| CCCc1cc(C)[nH]c(=O)c1CNC(=O)c1cc(Br)c2c(c1)CC(C)=C(C)CO2 [Example 86, 9-Bromo-3,4-dimethyl-N-((6-methyl-2-oxo-4-propyl-1,2-dihydropyridin-3-yl)methyl)-2,5-dihydrobenzo[b]oxepine-7-carboxamide] | > 1 |
| CCC1COc2cc(C(=O)NCc3c(C)cc(C)[nH]c3=O)cc(Br)c2O1 (stereo not drawn) [Example 91, 8-Bromo-N-((4,6-dimethyl-2-oxo-1,2-dihydropyridin-3-yl)methyl)-2-ethyl-2,3-dihydrobenzo[b][1,4]dioxine-6-carboxamide] | > 1 |
